Data: US6846801B1, “Systemic administration of a therapeutic preparation” (AstraZeneca AB, priority 1993, dated 2005)

Tests used:
rats = test: Rat model: powder inhaled, blood glucose compared with insulin formulations without enhancer; format: in vivo; conditions: for improvement in absorption of insulin: in vivo model; on Effect: key: +: significant decrease in blood glucose level; (+): moderate decrease in blood glucose level; −: no or very small decrease in blood glucose level
Procedure: Each of the compounds listed in Table III was tested for its ability to enhance uptake of insulin, and thus affect blood glucose levels, in a rat model. Various forms of insulin were employed: recombinant or semisynthetic human or bovine. Each formulation was prepared as above, drying and processing the insulin/enhancer or insulin/enhancer/lactose solution to produce an inhalable powder.
The powder was administered to rats by inhalation, and the blood glucose levels of the rats were subsequently monitored. These levels were compared to the corresponding values obtained from rats which had inhaled insulin formulations without enhancer.

[1] = system: CaCo-2 epithelial cell monolayer; test: In vitro transport of insulin and markers across CaCo-2 epithelial cell monolayer; format: in vitro ADME; conditions: 60 min, 37° C.
From the text: A standard in vitro assay utilizing an epithelial cell line, CaCo-2 (available through the American Type Culture Collection (ATCC), Rockville, Md., USA), has been developed to assess the ability of various enhancer compounds to promote transport of insulin and other markers across an epithelial cell monolayer, as a model for the epithelial cell layer which functions in the lung to separate the alveolus from the pulmonary blood supply. In this assay, the enhancer and insulin or other marker are dissolved in aqueous solution at various proportions and/or concentrations, and applied to the apical side of the cell monolayer. After 60 min incubation at 37° C. and 95% RH (relative humidity), the amount of the marker on the basolateral side of the cells is determined: for example, by use of a radioactively labelled marker. […] This is true even when insulin is added to the enhancer/mannitol mixture (1:3 sodium caprate:insulin, by weight) (FIG. 9). This concentration of sodium caprate (16 mM) was also found to promote absorption of insulin across the cell monolayer. The amount of insulin which passed across the monolayer doubled in the presence of 16 mM sodium caprate, compared to the amount in the absence of any enhancer. […]

[2] = rats, inhaled powder, Enhancer:Insulin:lactose 2:4:94
[3] = rats, inhaled powder, Enhancer:Insulin:lactose 4:4:92
[4] = tested as enhancer in the method of the invention, animal (rat) model
[5] = rats, inhaled powder, Enhancer:Insulin:lactose 25:75:0

Compound: CCCCCCCCCC(=O)OC[C@H](COP(=O)([O-])OCC[N+](C)(C)C)OC(=O)CCCCCCCCC [Didecanoylphospatidylcholine]
- Effect (rats; rats, inhaled powder, Enhancer:Insulin:lactose 4:4:94): −

Compound: CCCCCCCC(=O)OCC(COP(=O)([O-])OCC[N+](C)(C)C)OC(=O)CCCCCCC (stereo not shown) [Dioctanoylphosphatidylcholine]
- Effect (rats; [2]): (+)

Compound: CCCCCCCCOC1O[C@H](CO)[C@@H](O)[C@H](O)[C@H]1O (stereo partly shown) [Octylglucopyranoside]
- performance as enhancer of insulin absorption in the lung (in words) (rats; rat, in vivo): some absorption enhancing properties
- Effect (rats; [3]): (+)

Compound: CCCCCCCCCC(=O)[O-].[K+] [Potassium caprate]
- Effect (rats; rats, inhaled powder, Enhancer:Insulin:lactose 27:73:0): +
- performance as enhancer of insulin absorption in the lung (in words) (rats; [4]): effective

Compound: CCCCCCCC/C=C\CCCCCCCC(=O)[O-].[K+] [Potassium oleate]
- Effect (rats; [3]): +

Compound: CCCCCCCCCC(=O)[O-].[Na+] [Sodium caprate]
- amount of insulin which passed across the monolayer, compared to absence of any enhancer ([1]; 16 mM sodium caprate, apical to basolateral): doubled
- amount of marker (mannitol) which appears on the basolateral side ([1]; at least up to 16 mM sodium caprate, FIG. 8): dependent upon the concentration of enhancer used
- improvement in absorption of insulin (rats; insulin/sodium caprate 50/50 w/w (50% sodium caprate)): Significant improvement
- improvement in absorption of insulin (rats; insulin/sodium caprate 75/25 w/w (25% sodium caprate)): Significant improvement
- improvement in absorption of insulin (rats; insulin/sodium caprate 82.5/17.5 w/w (17.5% sodium caprate)): intermediate
- improvement in absorption of insulin (rats; insulin/sodium caprate 90/10 w/w (10% sodium caprate)): poor improvement
- Effect (rats; [3]): +
- Effect (rats; rats, inhaled powder, Enhancer:Insulin:lactose 10:90:0): (+)
- Effect (rats; rats, inhaled powder, Enhancer:Insulin:lactose 17.5:82.5:0): (+)
- Effect (rats; [5]): +
- performance as enhancer of insulin absorption in the lung (in words) (rats; [4]): perform well

Compound: CCCCCCCC(=O)[O-].[Na+] [Sodium caprylate]
- Effect (rats; [5]): −

Compound: C[C@H](CCC(=O)NCC(=O)[O-])[C@H]1CC[C@H]2[C@@H]3[C@H](O)C[C@@H]4C[C@H](O)CC[C@]4(C)[C@H]3C[C@H](O)[C@]12C.[Na+] [Sodium glycocholate]
- performance as enhancer of insulin absorption in the lung (in words) (rats; rat, in vivo): effectively enhance insulin absorption in the lung
- Effect (rats; [3]): +

Compound: CCCCCCCCCCCC(=O)[O-].[Na+] [Sodium laurate]
- Effect (rats; [5]): (+)
- performance as enhancer of insulin absorption in the lung (in words) (rats; [4]): perform well

Compound: CCCCCCCCCCCCCC(=O)[O-].[Na+] [Sodium myristate]
- Effect (rats; rats, inhaled powder, Enhancer:Insulin:lactose 30:70:0): +
- performance as enhancer of insulin absorption in the lung (in words) (rats; [4]): perform well

Compound: C[C@H](CCC(=O)NCCS(=O)(=O)O)[C@H]1CC[C@H]2[C@@H]3[C@H](O)C[C@@H]4C[C@H](O)CC[C@]4(C)[C@H]3C[C@H](O)[C@]12C [Sodium taurocholate]
- Effect (rats; rat, in vivo): +
- performance as enhancer of insulin absorption in the lung (in words) (rats; rat, in vivo): effectively enhance insulin absorption in the lung

Compound: CC(=O)OC1CC2(C)C(CC(O)C3C4(C)CCC(O)C(C)C4CCC32C)C1=C(CCCC(C)C)C(=O)NCCS(=O)(=O)O (stereo not shown) [Sodium taurodihydrofusidate]
- performance as enhancer of insulin absorption in the lung (in words) (rats; rat, in vivo): effectively enhance insulin absorption in the lung
- Effect (rats; [2]): +

Compound: C[C@H](CCC(=O)[O-])[C@H]1CC[C@H]2[C@@H]3[C@@H](O)C[C@@H]4C[C@H](O)CC[C@]4(C)[C@H]3CC[C@]12C.[Na+] [Sodium ursodeoxycholate]
- performance as enhancer of insulin absorption in the lung (in words) (rats; rat, in vivo): effectively enhance insulin absorption in the lung
- Effect (rats; [3]): +

Compound: Dimethyl-β-cyclodextrin
- performance as enhancer of insulin absorption in the lung (in words) (rats; rat, in vivo): absorption enhancing effect
- Effect (rats; rats, inhaled powder, Enhancer:Insulin:lactose 75:25:0): +

Compound: Lysine caprate
- Effect (rats; rats, inhaled powder, Enhancer:Insulin:lactose 35:65:0): +
- performance as enhancer of insulin absorption in the lung (in words) (rats; [4]): effective

Compound: Lysophosphatidylcholine
- Effect (rats; [3]): +
- performance as enhancer of insulin absorption in the lung (in words) (rats; [4]): effective enhancer
